According to patent US10738053B2, “Bicyclic compounds as dual ATX/CA inhibitors” (Hoffmann-La Roche Inc., priority 2015, dated 2020):

Columns and labels:
human ATX = human ATX (Homo sapiens (Human), UniProt Q13822); experiment: Human ATX enzyme inhibition assay (fluorescence quenching, MR121 substrate); format: biochemical; conditions: human His-tagged ATX 30 nM, MR121 substrate 1 μM
Protocol: Production of Human Full Length ATX, with and without His Tag
Autotaxin (ATX-ENPP2) cloning: cDNA was prepared from commercial human hematopoietic cells total RNA and used as template in overlapping PCR to generate a full length human ENPP2 ORF with or without a 3′-6× His tag. These full length inserts were cloned into the pcDNA3.1V5-His TOPO (Invitrogen) vector. The DNA sequences of several single clones were verified. The DNA from a correct full length clone was used to transfect Hek293 cells for verification of protein expression. The sequence of the encoded ENPP2 conforms to Swissprot entry Q13822, with or without the additional C-terminal 6× His tag.
ATX Fermentation: Recombinant protein was produced by large-scale transient transfection in 20 L controlled stirred tank bioreactors (Sartorius). During cell growth and transfection, temperature, stirrer speed, pH and dissolved oxygen concentration were maintained at 37° C., 120 rpm, 7.1 and 30% DO, respectively. FreeStyle 293-F cells (Invitrogen) were cultivated in suspension in FreeStyle 293 medium (Invitrogen) and transfected at ca. 1-1.5×10E6 cells/mL with above plasmid DNAs using X-tremeGENE Ro-1539 (commercial product, Roche Diagnostics) as complexing agent. Cells were fed a concentrated nutrient solution (J Immunol Methods 194 (1996), 19, 1-199 (page 193)) and induced by sodium butyrate (2 mM) at 72 h post-transfection and harvested at 96 h post-transfection. Expression was analyzed by Western Blot, enzymatic assay and/or analytical IMAC chromatography. After cooling the cell suspension to 4° C. in a flow-through heat exchanger, cell separation and sterile filtration of supernatant was performed by filtration through Zeta Plus 60M02 E16 (Cuno) and Sartopore 2 XLG (Sartorius) filter units. The supernatant was stored at 4° C. prior to purification.
ATX Purification: 20 liter of culture supernatant were conditioned for ultrafiltration by adding Brij 35 to a final concentration of 0.02% and by adjusting the pH to 7.0 using 1 M HCl. Then the supernatant was first microfiltred through a 0.2 µm Ultran-Pilot Open Channel PES filter (Whatman) and afterwards concentrated to 1 liter through an Ultran-Pilot Screen Channel PES filter with 30 kDa MWCO (Whatman). Prior to IMAC chromatography, NiSO4 was added to a final concentration of 1 mM. […] The column was washed stepwise with the same buffer containing 20 mM, 40 mM and 50 mM imidazole, respectively. The protein was subsequently eluted using a linear gradient to 0.5 M imidazole in 15 column volumes. ATX containing fractions were pooled and concentrated using an Amicon cell equipped with a 30 kDa PES filter membrane. […] Final yield of protein after purification was 5-10 mg ATX per liter of culture supernatant. The protein was stored at −80° C.
Human ATX Enzyme Inhibition Assay
Test compounds (10 mM stock in DMSO, 8 μL) were obtained in 384 well sample plates (Corning Costar #3655) and diluted with 8 μL DMSO. […] Then, 15 μL of 41.7 nM ATX solution was added (30 nM final concentration), mixed five times and then incubated for 15 minutes at 30° C. 10 μL of MR121 substrate solution was added (1 μM final concentration), mixed 30 times and then incubated for 15 minutes at 30° C.

[1] = target: Human carbonic anhydrase II (hCA-II) (Homo sapiens (Human), UniProt P00918); experiment: Human carbonic anhydrase-II inhibition assay (absorbance, 4-NPA substrate); format: biochemical; conditions: hCA II 8 nM, 4-NPA 2.5 mM, absorbance 340 nm; read-out: CA-II IC50
Protocol: Human Carbonic Anhydrase-II Inhibition Assay
Then 30 μL of 16 nM hCA II solution was added (8 nM final concentration), mixed five times. 30 μL of 4-NPA substrate solution was added (2.5 mM final concentration), mixed five times.

An IC50 (human ATX) of 8 nM and an IC50 [1] of 5 nM were found for `CO[C@]12CN(C(=O)OCc3ncc(C(F)(F)F)cc3NC(=O)C(C)(C)C)C[C@@H]1CN(C(=O)c1ccc(S(N)(=O)=O)cc1F)C2` (racemic) [Example 1.00, trans-5-(2-Fluoro-4-sulfamoyl-benzoyl)-3a-methoxy-hexahydro-pyrrolo[3,4-c]pyrrole-2-carboxylic acid 3-(2,2-dimethyl-propionylamino)-5-trifluoromethyl-pyridin-2-ylmethyl ester] in this work.

An IC50 (human ATX) of 6 nM was found for `CO[C@]12CN(C(=O)OCc3ncc(C(F)(F)F)cc3NC(=O)C(C)(C)C)C[C@@H]1CN(C(=O)c1ccc(S(N)(=O)=O)cc1)C2` (racemic) [Example 1.03, trans-5-(4-sulfamoyl-benzoyl)-3a-methoxy-hexahydro-pyrrolo[3,4-c]pyrrole-2-carboxylic acid 3-(2,2-dimethyl-propionylamino)-5-trifluoromethyl-pyridin-2-ylmethyl ester] in this work.

An IC50 (human ATX) of 3 nM was found for `NS(=O)(=O)c1ccc(C(=O)N2C[C@H]3CN(C(=O)OCc4ccc(OC(F)(F)F)cc4)C[C@]3(F)C2)cc1` (racemic) [Example 1.04, trans-5-(4-sulfamoyl-benzoyl)-3a-fluoro-hexahydro-pyrrolo[3,4-c]pyrrole-2-carboxylic acid 4-trifluoromethoxy-benzyl ester] in this work.

An IC50 (human ATX) of 20 nM was found for `CO[C@]12CN(C(=O)OCc3ccc(OC(F)(F)F)cc3)C[C@@H]1CN(C(=O)c1ccc(S(N)(=O)=O)cc1)C2` (racemic) [Example 1.05, trans-5-(4-sulfamoyl-benzoyl)-3a-methoxy-hexahydro-pyrrolo[3,4-c]pyrrole-2-carboxylic acid 4-trifluoromethoxy-benzyl ester] in this work.

An IC50 (human ATX) of 6 nM was found for `C[C@]12CN(C(=O)OCc3ccc(OC(F)(F)F)cc3)C[C@@H]1CN(C(=O)c1ccc(S(N)(=O)=O)cc1)C2` (racemic) [Example 1.06, trans-3a-methyl-5-(4-sulfamoyl-benzoyl)-hexahydro-pyrrolo[3,4-c]pyrrole-2-carboxylic acid 4-trifluoromethoxy-benzyl ester] in this work.

An IC50 (human ATX) of 10 nM and an IC50 [1] of 8 nM were found for `CO[C@]12CN(C(=O)CCc3ccc(OC(F)(F)F)cc3)C[C@@H]1CN(C(=O)c1ccc(S(N)(=O)=O)cc1F)C2` (relative stereo) [Example 1.01, trans-4-[3a-methoxy-2-[3-[4-(trifluoromethoxy)phenyl]propanoyl]-3,4,6,6a-tetrahydro-1H-pyrrolo[3,4-c]pyrrole-5-carbonyl]-3-fluorobenzenesulfonamide] in this work.

An IC50 (human ATX) of 6 nM and an IC50 [1] of 10 nM were found for `CO[C@@]12CN(C(=O)c3cc(OCC4CCOCC4)nc(C4CC4)c3)C[C@H]1CN(C(=O)c1ccc(S(N)(=O)=O)cc1F)C2` (relative stereo) [Example 1.02, trans-4-[5-[2-cyclopropyl-6-(oxan-4-ylmethoxy)pyridine-4-carbonyl]-3a-methoxy-3,4,6,6a-tetrahydro-1H-pyrrolo[3,4-c]pyrrole-2-carbonyl]-3-fluorobenzenesulfonamide] in this work.

An IC50 (human ATX) of 6 nM and an IC50 [1] of 13 nM were found for `CO[C@]12CN(C(=O)OCc3ncc(C(F)(F)F)cc3NC(=O)C(C)(C)C)C[C@@H]1CN(C(=O)c1ccc(S(N)(=O)=O)cn1)C2` (relative stereo) [Example 1.07, trans-5-(5-sulfamoylpyridine-2-carbonyl)-3a-methoxy-hexahydro-pyrrolo[3,4-c]pyrrole-2-carboxylic acid 3-(2,2-dimethyl-propionylamino)-5-trifluoromethyl-pyridin-2-ylmethyl ester] in this work.

An IC50 (human ATX) of 17 nM and an IC50 [1] of 18 nM were found for `CO[C@]12CN(C(=O)CCc3ccc(OC(F)(F)F)cc3)C[C@@H]1CN(C(=O)c1ccc(S(N)(=O)=O)cn1)C2` (relative stereo) [Example 1.08, trans-6-[3a-methoxy-2-[3-[4-(trifluoromethoxy)phenyl]propanoyl]-3,4,6,6a-tetrahydro-1H-pyrrolo[3,4-c]pyrrole-5-carbonyl]pyridine-3-sulfonamide] in this work.

An IC50 (human ATX) of 10 nM and an IC50 [1] of 10 nM were found for `CO[C@@]12CN(C(=O)c3cc(OCC4CCOCC4)nc(C4CC4)c3)C[C@H]1CN(C(=O)c1ccc(S(N)(=O)=O)cn1)C2` (relative stereo) [Example 1.09, trans-6-[5-[2-cyclopropyl-6-(oxan-4-ylmethoxy)pyridine-4-carbonyl]-3a-methoxy-3,4,6,6a-tetrahydro-1H-pyrrolo[3,4-c]pyrrole-2-carbonyl]pyridine-3-sulfonamide] in this work.

An IC50 (human ATX) of 7 nM and an IC50 [1] of 6 nM were found for `NS(=O)(=O)c1ccc(C(=O)N2C[C@H]3CN(C(=O)OCc4ccc(OC(F)(F)F)cc4)C[C@]3(F)C2)c(F)c1` (relative stereo) [Example 2.00, trans-5-(2-Fluoro-4-sulfamoyl-benzoyl)-3a-fluoro-hexahydro-pyrrolo[3,4-c]pyrrole-2-carboxylic acid 4-trifluoromethoxy-benzyl ester] in this work.

An IC50 (human ATX) of 5 nM and an IC50 [1] of 9 nM were found for `NS(=O)(=O)c1ccc(C(=O)N2C[C@H]3CN(C(=O)/C=C/c4ccc(OC(F)(F)F)cc4)C[C@]3(F)C2)c(F)c1` (relative stereo) [Example 3.00, trans-4-[3a-Fluoro-2-[(E)-3-[4-(trifluoromethoxy)phenyl]prop-2-enoyl]-3,4,6,6a-tetrahydro-1H-pyrrolo[3,4-c]pyrrole-5-carbonyl]-3-fluorobenzenesulfonamide] in this work.

An IC50 (human ATX) of 8 nM and an IC50 [1] of 6 nM were found for `NS(=O)(=O)c1ccc(C(=O)N2C[C@@H]3CN(C(=O)c4cc(OCC5CCOCC5)nc(C5CC5)c4)C[C@@]3(F)C2)c(F)c1` (relative stereo) [Example 3.02, trans-4-[5-[2-cyclopropyl-6-(oxan-4-ylmethoxy)pyridine-4-carbonyl]-3a-fluoro-3,4,6,6a-tetrahydro-1H-pyrrolo[3,4-c]pyrrole-2-carbonyl]-3-fluorobenzenesulfonamide] in this work.

An IC50 (human ATX) of 4 nM and an IC50 [1] of 6 nM were found for `NS(=O)(=O)c1ccc(C(=O)N2C[C@H]3CN(C(=O)CCc4ccc(OC(F)(F)F)cc4)C[C@]3(F)C2)c(F)c1` (relative stereo) [Example 3.03, trans-4-[3a-fluoro-2-[3-[4-(trifluoromethoxy)phenyl]propanoyl]-3,4,6,6a-tetrahydro-1H-pyrrolo[3,4-c]pyrrole-5-carbonyl]-3-fluorobenzenesulfonamide] in this work.

An IC50 (human ATX) of 13 nM and an IC50 [1] of 18 nM were found for `CO[C@@]12CN(C(=O)OCc3ccc(OC(F)(F)F)cc3)C[C@H]1CN(C(=O)c1ccc(S(N)(=O)=O)cc1)C2` (single isomer, unassigned) [Example 4.01, (−)-trans-5-(4-sulfamoyl-benzoyl)-3a-methoxy-hexahydro-pyrrolo[3,4-c]pyrrole-2-carboxylic acid 4-trifluoromethoxy-benzyl ester] in this work.

An IC50 (human ATX) of 8 nM and an IC50 [1] of 10 nM were found for `NS(=O)(=O)c1ccc(C(=O)N2C[C@@H]3CN(C(=O)OCc4ccc(OC(F)(F)F)cc4)C[C@@]3(F)C2)cc1` (single isomer, unassigned) [Example 4.02, (−)-trans-5-(4-sulfamoyl-benzoyl)-3a-fluoro-hexahydro-pyrrolo[3,4-c]pyrrole-2-carboxylic acid 4-trifluoromethoxy-benzyl ester] in this work.
